Test results taken from patent US5618804A, “Methanediphosphonic acid derivative, process for production thereof and use for pharmaceuticals” (Toray Industries, Inc., priority 1992, dated 1997).

Assays:
neutrophils = assay: Inhibition of active oxygen release from fMLP-stimulated human neutrophils (CLA chemiluminescence); assay type: cell-based; conditions: 10 μm (so in the source)
Description: Neutrophils are known to ingest foreign bodies for their removal and to produce active oxygen and digestive enzymes, as a biological defense mechanism. However, during chronic inflammation, etc., the active oxygen and digestive enzymes produced by neutrophils also damage normal tissue, and are thought to further reinforce inflammation. Here, the effects of the compounds according to the present invention against the release of active oxygen from neutrophils were determined in the following manner.
Using 3.8% sodium citrate as an anticoagulant, 50 ml of blood was taken from a human vein. […] Of these neutrophils, 1×10^5 cells were incubated at 37° C. with […] of the stimulant, formyl-methionyl-leucyl-phenylalanine (fMLP), and at the same time the compounds according to the present invention were added thereto and the production of active oxygen was measured. For the measurement of the active oxygen, 2-methyl-6-phenyl-3,7-dihydroimidazo [1,2a]pyrazine-3-one (CLA) was reacted therewith resulting in excited carbonyl compounds, and utilizing the phenomenon whereby light is emitted at 380 nm during their transition to ground state, the maximum luminescence intensity was measured with a luminometer. The inhibition rate against active oxygen production was calculated according to the following equation. […]

adjuvant arthritis = assay: Adjuvant arthritis test (foot edema and osteoclasia); assay type: in vivo, rat (7-week-old female Lewis rats); conditions: 20 mg/kg s.c., days 8-21; for Inhibition rate of osteoclasia with respect to control group: 22nd day, left and right hind legs, soft X-ray
[1] = test system: Mouse Macrophage Cell Line J774-1; assay: Inhibition of IL-1 production by LPS-stimulated mouse macrophage cell line J774-1 (IL-1 activity by thymocyte proliferation); assay type: cell-based; conditions: 100 μM compound, 1 μg/ml LPS, 24 h, read-out: IL-1 production inhibition rate with respect to control group
Description: Effect Against Production of IL-1 by Mouse Macrophage Cell Line J774-1
With this cell line, the inhibitory effects to IL-1 production of the compounds according to the present invention were determined by the following procedure.
J774-1 cells were cultured in an RPMI-1640 culture medium containing 10% fetal calf serum and 50 μM of 2-mercaptoethanol, and prepared to a cell concentration of 2×10^5 cells/ml. The cell suspension was distributed into a 24-well plate to 1 ml per well, and cultured for 30 minutes. […]
A two-fold serial dilution was made of the above obtained sample in a 96-well multiplate to a volume of 50 μl per well, and 50 μl of the T cell suspension was added to each well. The T cells were cultured for 72 hours, and the IL-1 activity was determined by the rate of cell proliferation. The cell proliferation was calculated using as the value of the absorbance at 570 nm of the pigment produced upon reduction of 3-[4,5-dimethylthiazole-2-yl]-2,5-diphenyltetrazolium bromide by the mitochondria of the viable cells, added at 4 hours prior to completion of the culturing, with 100% proliferation defined as the maximum proliferation of T cells induced by recombinant human IL-1, 0% defined as proliferation with no addition of IL-1, and the units of the sample defined as the degree of dilution of the sample which caused 50% proliferation of the T cells. […]

osteoclasts = assay: Inhibition of active-type vitamin D3-stimulated bone resorption (resorption pit formation on dentin slices); assay type: cell-based, mouse (ICR); conditions: 10 nM active-type vitamin D3, 4 days
Description: In conditions of osteoporosis, it is thought that the balance between bone formation and bone resorption is lost, with bone resorption being accelerated. Bone resorption is thought to occur due to the activation and increase in the number of osteoclasts, and a model thereof is an experiment in which mouse osteocytes are planted on dentin slices, causing bone resorption due to the stimulation of active-type vitamin D3. Using this model, the bone resorption-inhibiting effects of the compounds according to the present invention were determined.
The femurs and tibias were separated from 10 to 15- day-old ICR mice, and minced in an α-MEM culture medium containing 5% fetal calf serum, and an osteoclast suspension was prepared containing bone marrow cells and bone matrix. The large bone fragments were removed using a nylon mesh, and the viable cells were stained using trypan blue staining, while the osteoclasts were stained using tartaric acid-resistant acidic phosphatase staining, and a cell suspension was prepared which contained the osteoclasts at a proportion of about 0.05-0.1%. The dentin was cut to thicknesses of 150 μm using a low-speed rotating diamond cutter, and punched with a puncher to the size of wells of a 96-well plate. The dentin slices were placed in a 96-well plate, and the cell suspension prepared as described above was placed thereupon to a concentration of 500 osteoclasts per well. As a stimulant, 10 nM active-type vitamin D3 was added thereto, and at the same time the preparations according to the present invention were added thereto to concentrations of 10 μM and 100 μM. The cells were cultured at 37° C. in 10% CO2 environment, and after 4 days' culture the resorption pits which formed on the dentin slices were stained with hematoxylin, and then observed under a microscope and counted. The rate of inhibition of resorption pit formation was calculated according to the following equation. [formula]
The results were indicated with "*" in cases where, based on statistical calculation using the Student t-test, the level of significance was P<0.05 and with "**" in cases where the level of significance was P<0.01 with respect to the active-type vitamin D3 -stimulated control group.

Rabbit cartilage cells = assay: IL-1-inhibiting effect: proteoglycan degradation in IL-1-stimulated rabbit cartilage cells; assay type: cell-based, rabbit (New Zealand white); conditions: IL-1-stimulated (30 units/ml rhIL-1β), 100 μM compound, 24 h
Description: Rabbit cartilage cells are separated from knee joint and cultured. When they are stimulated with IL-1, proteoglycan, the main constituent glycoprotein of cartilage cells, is degraded. Using this consequence as an index, the IL-1-inhibiting effects of the compounds according to the present invention were determined in the following manner.
Three-week-old male New Zealand white rabbits weighing 250 g-300 g were sacrified under diethyl ether anesthesia, and their knee joints were separated. The cartilaginous sections were cut out from the knee joint with a scalpel, and then immersed in CMF solution containing 0.14M sodium chloride, 4 mM potassium chloride, 0.4 mM sodium dihydrogen phosphate, 12 mM sodium bicarbonate, 0.2 mM potassium dihydrogen phosphate and 11 mM glucose. The cartilage was placed in 0.1% EDTA and incubated at 37° C. for 20 minutes. The supernatant was removed off, 0.15% trypsin was added to the mixture, and then that was incubated at 37° C. for 60 minutes. The mixture was washed 3 times with CMF solution, and then placed in […] and further treated at 37° C. for 105 minutes. […]
Each of the obtained counts was divided by the count at the initial addition of inorganic sulfuric acid, and expressed as a percentage. […]

O=P(O)(O)C(Sc1ccc2ccccc2c1)P(=O)(O)O [Example 2, 2-naphthylthiomethane Diphosphonic Acid]
Active oxygen production inhibition rate (neutrophils): 29.4 ± 6.58%
Inhibition rate of osteoclasia with respect to control group (adjuvant arthritis): 75.2%
Inhibition rate of edema with respect to control group (adjuvant arthritis; left paw, 17th day): 76.8%
Inhibition rate of edema with respect to control group (adjuvant arthritis; left paw, 21st day): 94.5%
Inhibition rate of edema with respect to control group (adjuvant arthritis; right paw, 17th day): 35.2%
Inhibition rate of edema with respect to control group (adjuvant arthritis; right paw, 21st day): 44.3%
inhibition at 100 µM [1]: 41.7%
Inhibition rate (resorption pit formation) with respect to control (osteoclasts; 10 μM): 18.8 ± 6.23%
Inhibition rate (resorption pit formation) with respect to control (osteoclasts; 100 μM): 92.1 ± 0.43%
proteoglycan count in cell layer relative to count at initial addition of inorganic sulfuric acid (Rabbit cartilage cells; not stimulated 0.45, IL-1-stimulated control 0.11): 0.31 ± 0.011
proteoglycan count in supernatant relative to count at initial addition of inorganic sulfuric acid (Rabbit cartilage cells; not stimulated 0.63, IL-1-stimulated control 1.06): 0.78 ± 0.015

O=P(O)(O)C(Sc1ccc2cc(O)ccc2c1)P(=O)(O)O [Example 6, 6-Hydroxy-2-naphthylthiomethanediphosphonic Acid]
Inhibition rate of osteoclasia with respect to control group (adjuvant arthritis): 60.3%
Inhibition rate of edema with respect to control group (adjuvant arthritis; left paw, 16th day): 85.6%
Inhibition rate of edema with respect to control group (adjuvant arthritis; left paw, 21st day): 117.3%
Inhibition rate of edema with respect to control group (adjuvant arthritis; right paw, 16th day): 31.8%
Inhibition rate of edema with respect to control group (adjuvant arthritis; right paw, 21st day): 39.9%
Inhibition rate (resorption pit formation) with respect to control (osteoclasts; 10 μM): 30.6 ± 12.5%
Inhibition rate (resorption pit formation) with respect to control (osteoclasts; 100 μM): 90.8 ± 1.33%

COc1ccc2cc(SC(P(=O)(O)O)P(=O)(O)O)ccc2c1 [Example 4, 6-Methoxy-2-naphthylthiomethanediphosphonic Acid]
Inhibition rate of osteoclasia with respect to control group (adjuvant arthritis): 55.2%
Inhibition rate of edema with respect to control group (adjuvant arthritis; left paw, 17th day): 80.0%
Inhibition rate of edema with respect to control group (adjuvant arthritis; left paw, 21st day): 93.0%
Inhibition rate of edema with respect to control group (adjuvant arthritis; right paw, 17th day): 40.8%
Inhibition rate of edema with respect to control group (adjuvant arthritis; right paw, 21st day): 33.4%
Inhibition rate (resorption pit formation) with respect to control (osteoclasts; 10 μM): 47.7 ± 2.18%
Inhibition rate (resorption pit formation) with respect to control (osteoclasts; 100 μM): 94.8 ± 1.04%
